IC50 data for eight molecules are collected here from patent US20170334899A1, “AMINO-SUBSTITUTED ISOTHIAZOLES” (Bayer Pharma Aktiengesellschaft, priority 2014, published 2017).

For assay [1], the system named is human cervical tumor cell line HeLa (ATCC CCL-2). As to the kind of experiment: SAC-Formation - Paclitaxel-Induced Assay. The class given is cell-based. The note with it: Homo sapiens, HeLa, 24 h, HeLa cells, paclitaxel 0.05 μM, test range 0.005 μM-20 μM, read-out: IC50 [mol/l] SAC-Formation - Paclitaxel-Induced Assay. The method in brief: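 Read-out is high-content imaging of anti-phospho-H3 Ser10 (mitosis) and Hoechst 33342 (DNA, cell number), with decreased mitotic fraction marking checkpoint breakthrough. Compounds (0.005–20 μM) and 0.05 μM paclitaxel co-added to overnight-plated HeLa for 24 h at 37° C; four-parameter Hill fit.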

A further assay concerns HeLa. As to the kind of experiment: Proliferation assay (crystal violet), HeLa. The class given is cell-based. The note with it: Homo sapiens, HeLa, 96 h, HeLa cells; 4 days incubation; crystal violet staining; read-out: IC50 inhibition of proliferation, HeLa. The method in brief: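 Four-day compound exposure (0.001-10 μM, 0.5% DMSO final) began 24 h after seeding 1000-5000 cells/well in medium with 10% fetal calf serum. Cell number read by crystal violet absorbance at 595 nm, scaled between day-zero plate and untreated control; 4-parameter fit gave IC50.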

Some results are limits rather than exact numbers.

As for `Cc1nsc(Nc2cnc(C(F)(F)F)cn2)c1C(=O)Nc1ccc(C(=O)N2CCN(CC(F)(F)F)CC2)cc1` [Example 260, 3-methyl-N-(4-{[4-(2,2,2-trifluoroethyl)piperazin-1-yl]carbonyl}phenyl)-5-{[5-(trifluoromethyl)pyrazin-2-yl]amino}-1,2-thiazole-4-carboxamide], the values for the IC50 (in assay [1]; with HeLa) were 400 nM and 1500 nM, respectively.

Turning to `Cc1nsc(Nc2cnc(C(F)(F)F)cn2)c1C(=O)Nc1ccc(F)c(OC2CCN(CC(F)(F)F)CC2)c1` [Example 264, N-(4-fluoro-3-{[1-(2,2,2-trifluoroethyl)piperidin-4-yl]oxy}phenyl)-3-methyl-5-{[5-(trifluoromethyl)pyrazin-2-yl]amino}-1,2-thiazole-4-carboxamide], the IC50 in assay [1] is 72 nM; in the assay with HeLa, 130 nM.

In the case of `Cc1nsc(Nc2cnc(C(F)(F)F)cn2)c1C(=O)Nc1ccc(F)c(OCC2CCN(CCF)CC2)c1` [Example 309, N-(4-fluoro-3-{[1-(2-fluoroethyl)piperidin-4-yl]methoxy}phenyl)-3-methyl-5-{[5-(trifluoromethyl)pyrazin-2-yl]amino}-1,2-thiazole-4-carboxamide], the results for the IC50 (in assay [1]; with HeLa) were 610 nM and 630 nM, respectively.

As to `Cc1nsc(Nc2cnc(C(F)(F)F)cn2)c1C(=O)Nc1ccc(OC2CCN(CCC(F)(F)F)C2)nc1` (stereo not shown) [Example 298, 3-methyl-5-{[5-(trifluoromethyl)pyrazin-2-yl]amino}-N-(6-{[1-(3,3,3-trifluoropropyl)pyrrolidin-3-yl]oxy}pyridin-3-yl)-1,2-thiazole-4-carboxamide], the results for the IC50 (in assay [1]; with HeLa) were 740 nM and 330 nM, respectively.

For `Cc1nsc(Nc2cnc(C(F)(F)F)cn2)c1C(=O)Nc1ccc(F)c(OC2CCN(CC(F)F)CC2)c1` [Example 265, N-(3-{[1-(2,2-difluoroethyl)piperidin-4-yl]oxy}-4-fluorophenyl)-3-methyl-5-{[5-(trifluoromethyl)pyrazin-2-yl]amino}-1,2-thiazole-4-carboxamide], the values for the IC50 (in assay [1]; in the assay on HeLa) were 150 nM and 320 nM, respectively.

For the molecule `CCN1CCN(C(=O)c2ccc(NC(=O)c3c(C)nsc3Nc3cncc(C(F)(F)F)n3)cc2)CC1` [Example 275, N-{4-[(4-ethylpiperazin-1-yl)carbonyl]phenyl}-3-methyl-5-{[6-(trifluoromethyl)pyrazin-2-yl]amino}-1,2-thiazole-4-carboxamide], the IC50 is 4400 nM in assay [1] and greater than 10000 nM with HeLa.

Turning to `Cc1nsc(Nc2cnc(C(F)(F)F)cn2)c1C(=O)Nc1ccc(F)c(OCCCNCCC(F)(F)F)c1` [Example 307, N-(4-fluoro-3-{3-[(3,3,3-trifluoropropyl)amino]propoxy}phenyl)-3-methyl-5-{[5-(trifluoromethyl)pyrazin-2-yl]amino}-1,2-thiazole-4-carboxamide], the IC50 in assay [1] was 380 nM; with HeLa, 690 nM.

With `Cc1nsc(Nc2cnc(C(F)(F)F)cn2)c1C(=O)Nc1ccc(F)c(OC2CCN(CC(F)F)C2)c1` (stereo not shown) [Example 314, N-(3-{[1-(2,2-difluoroethyl)pyrrolidin-3-yl]oxy}-4-fluorophenyl)-3-methyl-5-{[5-(trifluoromethyl)pyrazin-2-yl]amino}-1,2-thiazole-4-carboxamide], the IC50 worked out at 78 nM in assay [1] and 410 nM in the assay with HeLa.
